Experimental findings from patent US20110124574A1, “RESTORATION OF ESTROGEN RECEPTOR-(ALPHA) ACTIVITY” (priority 2008, published 2011) are described below.

Holding throughout (type): cell-based, human
In one test the test system is cleaved caspase 3. As to the kind of experiment: Cleaved caspase 3 Western blot after tamoxifen. The settings on record: MDA-MB-231, stimulation plus tamoxifen, compared with cells treated only with tamoxifen. The protocol:
MDA-MB-231 cells were grown in 6 well plates and stimulated with recombinant Wnt-5a protein (rW5a) or the Wnt-5a derived Foxy-5 peptide (F5), for 24 or 48 h. Cells were treated with tamoxifen for the final 20 h and their apoptotic responses were measured via different methods. […] Arrows highlight apoptotic cells. Bars represent […]. B: Following treatment with rW5a, F5 and tamoxifen, or tamoxifen alone, cells were lysed and subjected to SDS-PAGE, transferred to nitrocellulose membranes and blotted for cleaved caspase 3. C: Treated cells were assessed for their relative caspase 3 activity using fluorometric spectrophotometry. The graph represents 6 separate experiments. * P<0.01, ** P<0.001. D: MTT assays were also performed on MDA-MB-231 cells treated with rWnt-5a, F5 and tamoxifen, or tamoxifen alone (MDA-MB-231 and MCF-7 cells) to assess cell growth inhibition. The graph represents the average of 6 separate experiments, with standard deviation represented by error bars. ** P<0.01, *** P<0.001.
(§1) Cells were lysed in Triton lysis buffer (50 mM Tris (pH7.5), 1% Triton x-100, 140 mM NaCl, 0.5 mM EDTA, 0.5 MgCl2, 10 mM NaF) with the addition of fresh leupeptin (1 μg/ml), Pefabloc (2 mM), aprotinin (20 μg/ml) and Na3VO4 (4 mM). […] Scanning and densitometry was performed using a Bio-Rad (Hercules Calif.) GS-800 densitometer with Quantity One software. […]

A further test relates to ERα. As to the kind of experiment: ERα mRNA by RT-PCR in stimulated MDA-MB-468 cells. Particulars: time points 6, 12, 18 and 24 hours. The protocol:
Breast cancer cells were grown in 6 well plates and stimulated with recombinant Wnt-5a protein (rW5a) or the Wnt-5a derived Foxy-5 peptide (F5), for 6, 12, 18 or 24 h. RNA was extracted at the end time point, cDNA synthesized and subjected to RT-PCR for ERα and the housekeeping gene, β-actin. A: MDA-MB-231 breast cancer cells, B: MDA-MB-468 breast cancer cells. The positive control (Pos) is RNA extracted from T47D cells which express ERα. The negative control represents a water control.
Stimulation of cells was performed with recombinant Wnt-5a (0.6 μg/ml) and recombinant Wnt-3a (0.1 μg/ml and in a control experiment, 0.6 μg/ml) (R&D Systems Abington, UK) for times as indicated. The Wnt-5a derived formylated hexapeptide, Foxy-5 (formyl-MDGCEL) (SEQ. ID. NO. 1) designed in the laboratory of the inventors, and a formylated random hexapeptide (formyl-MSADVG) (SEQ: ID: NO: 16) were either synthesized by Pepscan Presto (Lelystad, The Netherlands) or Inbiolabs (Tallinn, Estonia). The peptides were purified by RP-HPLC and mass spectrometry, and the >95% pure peptides were synthesized three times. […]
RNA extraction was performed in a designated clean RNA area with the addition of 500 μl TRIzol to each sample. […] The RNA concentration was measured using a Nanodrop Spectrophotometer ND-1000 (Bio-Rad (Hercules Calif.)). […]

Another test relates to Phospho-ERα (Ser 118). As to the kind of experiment: Phospho-ERα (Ser 118) Western blot in MDA-MB-231 cells. Particulars: stimulated lysates. The protocol:
MDA-MB-231 cells were grown in 6 well plates and stimulated with recombinant Wnt-5a protein (rW5a) or the Wnt-5a derived Foxy-5 peptide (F5), for 24 or 48 h. A: Following treatment, cells were lysed and subjected to SDS-PAGE, transferred to nitrocellulose membranes and blotted for phospho-ERα expression. The positive control (Pos) represents cell lysates from T47D cells expressing ERα B and C: RNA was also extracted from stimulated cells and samples tested for progesterone receptor (PR) (B) and pS2 (C) mRNA using semi-nested RT-PCR. The positive control (Pos) is RNA extracted from T47D cells that express ERα. The negative control represents a water control. PCR results are representative of three separate experiments.
as §1, with “mM). Lysates were incubated on ice for 15 minutes, then pre-cleared by centrifugation for 10 minutes at 8000 g. Cell lysates were separated according to size on 8-12% SDS-polyacrylamide gels and subsequently electrically transferred to PVDF or nitrocellulose membranes.” for “mM).”
In general terms: Immunoblotting shows a protein as a band on a membrane.

Where no end group is shown, it is not given here. The star is where a group is joined. For = O=C*

On to “formyl-MDGCEL (For-MDGCEL; listed as Homo sapiens) [Foxy-5]”, for which the “levels of cleaved caspase-3” value in the test with cleaved caspase 3 is given as “higher levels”. In the test with ERα, the “stimulation time after which ERα mRNA was detected” value amounted to 6 h. Further, in the test on Phospho-ERα (Ser 118), the “Phosphorylated ERα (serine 118)” value is given as “detected”.

B1: recombinant Wnt-5a: recombinant Wnt-5a protein (R&D Systems) (protein, UniProt P41221 62-380, looked up)
Protein Wnt-5a: IIGAQPLCSQLAGLSQGQKKLCHLYQDHMQYIGEGAKTGIKECQYQFRHRRWNCSTVDNTSVFGRVMQIGSRETAFTYAVSAAGVVNAMSRACREGELSTCGCSRAARPKDLPRDWLWGGCGDNIDYGYRFAKEFVDARERERIHAKGSYESARILMNLHNNEAGRRTVYNLADVACKCHGVSGSCSLKTCWLQLADFRKVGDALKEKYDSAAAMRLNSRGKLVQVNSRFNSPTTQDLVYIDPSPDYCVRNESTGSLGTQGRLCNKTSEGMDGCELMCCGRGYDQFKTVQTERCHCKFHWCCYVKCKKCTEIVDQFVCK
Turning to B1, the “levels of cleaved caspase-3” value in the test on cleaved caspase 3 is on record as “higher levels”. Moreover, in the test with ERα, the “stimulation time after which ERα mRNA was detected” value stood at 12 h. Also, the “Phosphorylated ERα (serine 118)” value in the test with Phospho-ERα (Ser 118) is reported as “detected”.
